Measured values taken from patent US20140031787A1, “FEEDBACK-BASED DIURETIC OR NATRIURETIC MOLECULE ADMINISTRATION” (Medtronic, Inc., priority 2012, published 2014).

Tests used:
[1] = tested on: male dog; test: NICOM study: cardiac data in anesthetized, mechanically ventilated dog; format: in vivo; conditions: phenylephrine followed by SNP; for cardiac output (CO): dobutamine incremental infusion doses, esmolol after dobutamine
Procedure: In one embodiment, the monitor comprises two electrodes (2601, 2602) which carry out two roles simultaneously. The first role is to deliver a continuous low-voltage alternating electrical current. The second role is to sample at a very fast rate the signal emanating from a patient. The signals are then analyzed to determine stroke volume (SV), heart rate (HR), cardiac output (CO), stroke volume variation (SVV) and other hemodynamic information. In one embodiment, the two electrodes 2601 and 2602 are placed on the surface of the chest of a human being 2604 to collect cardiac data. Although a human being 2604 is depicted, one of ordinary skill will understand that any mammal can be the subject. Further, one of ordinary skill in the art will appreciate that the two electrodes 2601 and 2602 may be placed on different locations of the body of the subject to obtain data.
A noninvasive cardiac output monitoring (NICOM) monitor was utilized to measure cardiac data from an anesthetized, mechanically ventilated, 54 lb, 42 inch (nose to base of tail) male dog. FIGS. 23-27 depict the cardiac data measured by the NICOM monitor.
The gap in data at 11:20 indicates electrocautery interference when the chest of the dog was opened. FIG. 24 depicts the data in response to sequential fluid boluses. An approximate 20% increase in CO was detected reflecting changes in both SV and HR. […] FIG. 26 depicts the cardiodepressant effect of the ultra-short beta-blocker esmolol given after dobutamine and recalibration. […] FIG. 27 depicts the response to increasing blood pressure with phenylephrine followed by decreasing blood pressure with sodium nitroprusside (SNP). Prior to this intervention, the dog chest had been opened and commercially available flow monitors had been implanted on the pulmonary artery (PA). Baseline PA flow data, which was measured by the implantable monitors, was 2.7 L/min. The PA flow data measured by the NICOM monitor was 2.812 L/min.

[2] = tested on: Dahl/SS rats; test: Pharmacodynamic study of VD by SQ infusion in Dahl/SS rats on 4% salt diet; conditions: for blood pressure compared with 4% vehicle control group at week 3: week 3, p-value<0.05
Procedure: The pharmacodynamic effects of VD were investigated in a rat model. Forty male Dahl/SS rats were shipped to the animal facilities at PhysioGenix, Inc. (Milwaukee, Wis.). The rats were maintained on a low-salt diet and allowed to acclimate. After acclimation, animals had baseline parameters collected while on the low-salt diet. Baseline tail-cuff blood pressures and echocardiograms were measured. Baseline urine was collected for analysis of protein and albumin. Animals were then randomly assigned to one of 4 groups (10 animals per group):
1. Vehicle Control; low-salt diet, n=10 2. Vehicle Control; 4% salt diet, n=10 3. Vessel dilator, 100 ng/kg/min, 4% salt diet, n=10 4. Vessel dilator, 300 ng/kg/min, 4% salt diet, n=10
The vehicle control groups were infused with a citrate-mannitol-saline buffer (0.66 mg/mL citric acid, 6.43 mg/mL sodium citrate, 40 mg/mL mannitol, 9 mg/mL NaCl). The animals were on a Teklad 7034 (low-salt) diet or Dyets AIN-76A 4% salt diet, as indicated, throughout a 6 week course of the study and had free access to water.
Alzet® minipumps (Durect, Corp.) were surgically implanted on Days 1, 15, and 29 of the study to maintain continuous vehicle or drug dispensing at the desired dose for a total period of 6 weeks. Urine was collected at baseline, 2, 4 and 6 weeks after the initiation of the treatment to assess proteinuria and albuminuria. After six weeks of treatment, the animals were then euthanized.

[3] = tested on: canine model high-rate paced (HRP); test: Pharmacodynamic study of VD by subcutaneous infusion in high-rate paced canine heart failure model
From the text: The pharmacodynamic effects of VD delivered by subcutaneous infusion were investigated in a canine model high-rate paced (HRP) to a heart rate of 240 bpm (ventricular pacing) over a period of 10 days to simulate HF. The canines were divided into a control group and an experimental group. The control group received a continuous subcutaneous infusion of the Tris buffer without VD over the course of the 10 day period. The experimental group received continuous subcutaneous infusion of VD dissolved in Tris buffer at a dosing rate of 100 ng/kg·min based upon the body weight of individual canines.
Seven days prior to the beginning of HRP (Day −7), all dogs were instrumented for ventricular pacing with an IPG (implantable pulse generator) including an RA (right atrium) and RV (right ventricle) lead, and a DSI (Digital Sciences International) device in the femoral artery for arterial blood pressure monitoring. Glomerular filtration rate (GFR) was measured by iohexol clearance on the day before the beginning of HRP (Day −1). On Day 0, high-rate pacing was initiated at a rate of 240 BPM (beats per minute) and maintained continuously over the course of a 10 day period (Days 0-10). After HRP was started on Day 0, urine, blood, and hemodynamic data was collected from conscious animals to serve as a baseline.
On Days 0-10, in combination with pacing, each animal received continuous subcutaneous (SQ) infusion of an agent (Tris buffer solution for control animals and vessel dilator in Tris buffer for experimental animals) delivered via external catheter and pump. SQ infusion was performed using Medtronic MiniMed® 407C pumps equipped with 3.0 mL reservoirs (#MMT-103A) and Medtronic Silhouette® combo infusion sets (#MMT373). GFR measurements were repeated on Day 9. On Day 10 (with HRP On), a pre-term monitor was performed for urine and hemodynamic data collection on conscious animals. Once the data was collected, HRP was turned off and the animals were euthanized.

CC(CCc1ccc(O)cc1)NCCc1ccc(O)c(O)c1 (stereo not drawn) [dobutamine]
cardiac output (CO) ([1]; NICOM monitor): marked increase

COC(=O)CCc1ccc(OCC(O)CNC(C)C)cc1 (stereo not drawn) [esmolol]
cardiac output (CO) ([1]; NICOM monitor): marked decline

CNC[C@H](O)c1cccc(O)c1 [phenylephrine]
cardiac output (CO) ([1]; NICOM monitor): reduced
heart rate (HR) ([1]; NICOM monitor): reflex slowing
blood pressure [1]: elevated

vessel dilator (EVVPPQVLSEPNEEAGAALSPLPEVPPWTGEVSPAQR; Vessel dilator; UniProt P01160 56-92, looked up) [VD]
average blood pressure compared with vehicle control group on 4% salt diet ([2]; high-dose VD 300 ng/kg/min SQ infusion): attenuated blood pressure
blood pressure compared with 4% vehicle control group at week 3 ([2]; high-dose VD 300 ng/kg/min): statistically significant decrease
decrease in blood pressure compared with 4% vehicle control group at week 5 ([2]; high-dose VD 300 ng/kg/min): not as statistically significant
average blood pressure compared with vehicle control group on 4% salt diet ([2]; low-dose VD 100 ng/kg/min SQ infusion): attenuated blood pressure
blood pressure compared with 4% vehicle control group at week 3 ([2]; low-dose VD 100 ng/kg/min): statistically significant decrease
decrease in blood pressure compared with 4% vehicle control group at week 5 ([2]; low-dose VD 100 ng/kg/min): not as statistically significant
difference in pulmonary capillary wedge pressure between control and experimental group on Day 10 ([3]; VD 100 ng/kg·min SQ infusion, two-way repeated measures ANOVA): does not appear to be statistically significant
extent of increase in pulmonary capillary wedge pressure Day 0 to Day 10 compared with control group ([3]; VD 100 ng/kg·min continuous SQ infusion): smaller than that observed in the control group
increase in right atrial pressure compared with control group ([3]; VD 100 ng/kg·min continuous SQ infusion, Day 10, p-value<0.05): significantly less than for the control group
mean right atrial pressure, change from Day 0 to Day 10 ([3]; VD 100 ng/kg·min continuous SQ infusion, HRP 240 bpm for 10 days): increased slightly
